Reference: PMC9413491, “A Novel and Cross-Species Active Mammalian INDY (NaCT) Inhibitor Ameliorates Hepatic Steatosis in Mice with Diet-Induced Obesity” (Metabolites, 2022)

Tests used:
[1] = test system: DIO mice; test: 7-day treatment of diet-induced obesity (DIO) mice; format: in vivo, mouse; details: 15 mg/kg twice daily, 7 days, p < 0.001 pair-fed, p < 0.05 vehicle
[2] = Blood-brain barrier penetration: brain versus liver concentrations; format: in vivo; details: brain vs liver
[3] = molecular target: T1, human NaCT (Homo sapiens, UniProt Q86YT5); test: [14C] citrate uptake in HepG2 cells endogenously expressing human NaCT; format: cell-based
T1 construct: citrate uptake into HepG2 cells, which endogenously expressed NaCT; host or cells: HepG2
T1 sequence (Q86YT5 whole entry): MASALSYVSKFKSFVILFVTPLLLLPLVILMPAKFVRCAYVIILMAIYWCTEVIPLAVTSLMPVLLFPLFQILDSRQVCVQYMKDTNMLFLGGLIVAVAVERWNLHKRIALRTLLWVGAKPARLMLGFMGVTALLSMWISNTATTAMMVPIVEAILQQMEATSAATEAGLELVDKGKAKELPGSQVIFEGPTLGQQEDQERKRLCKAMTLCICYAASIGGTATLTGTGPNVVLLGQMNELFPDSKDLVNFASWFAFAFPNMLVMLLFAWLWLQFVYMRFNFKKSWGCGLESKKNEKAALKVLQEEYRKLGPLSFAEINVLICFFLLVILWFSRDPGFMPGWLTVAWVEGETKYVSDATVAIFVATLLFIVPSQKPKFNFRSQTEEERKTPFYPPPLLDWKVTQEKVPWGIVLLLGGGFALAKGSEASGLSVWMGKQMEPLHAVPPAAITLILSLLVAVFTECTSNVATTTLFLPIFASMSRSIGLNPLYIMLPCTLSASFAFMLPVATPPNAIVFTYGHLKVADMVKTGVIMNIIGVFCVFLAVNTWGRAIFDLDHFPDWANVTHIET
Excerpt: (§1) We determined activity on human NaCT by measuring citrate uptake into HepG2 cells, which endogenously expressed NaCT [37] and for mouse Nact, using HEK293 cells recombinantly expressing mouse Nact (HEK-Nact). We cloned the mouse Slc13a5 cDNA encoding Nact as described previously.
(§2) For radiometric [14C] citrate uptake assays, we used Cytostar-T plates (Perkin Elmer#RPNQ0166, Waltham, MA, USA). For each assay, we seeded 20,000 HepG2 cells per well on collagen coated 384-well Cytostar-T plates or 5000 HEK293 cells per well on ploy-D-lysine coated 384-well Cytostar-T plates. On the following day, we changed culture medium to assay buffer: 120 mM NaCl, 5.4 mM KCl, 0.8 mM MgSO4, 5 mM glucose, 1.8 mM CaCl2, 25 mM Hepes, 25 mM MES, pH 6.5 (human) and pH 7.5 (mouse). We preincubated cells with compounds at 37 °C for 20 min, after which we added [14C] citrate (3 µM for HEK cells and 10 µM for HepG2 cells) and incubated cells for 50 min at 37 °C. After cooling down for 15 min at 4 °C, we measured the counts using a Microbeta2 reader system (Perkin Elmer).

[4] = test system: DIO mice; test: Short-term tolerability studies in the DIO mouse model; format: in vivo
Excerpt: Next, we tested the functional activity of ETG-5773 in vivo to establish whether the effects on in vitro citrate uptake and FAS were physiologically relevant. […] Therefore, we applied pair-fed control groups to explore the pharmacological actions on metabolism without interference from food-intake effects.
[…] […] The potential for off-target effects on feeding behaviour provided the rational for including pair-fed control groups.

[5] = test system: DIO mice; test: 7-day treatment of diet-induced obesity (DIO) mice; format: in vivo, mouse; details: 15 mg/kg twice daily, 7 days
Experimental: We performed in vivo testing in DIO mice (for 7- and 28-day treatment), an established model designed to study high-fat-diet-induced hepatic steatosis and associated cardiometabolic traits. We established DIO in four-week-old C57BL/6N male mice that were fed a high-fat diet (HFD, 60 kcal% fat, D12492; Research Diets, Inc.; New Brunswick, NJ, USA) until 11 weeks of age.
Mice were housed at a temperature of 22–24 °C, with a day/night cycle of 12/12 h (07:00-19:00–07:00) and had access to the appropriate diet and tap water ad libitum. Animals allocated to the pair-feeding group were fed the same amount of food as the corresponding treatment group had consumed the day before. Food was only withdrawn for overnight fasting on the penultimate study day before the section on the final day. We randomised groups of n = 12 for treatment and n = 8 for pair-feeding cage-wise according to random fed blood glucose levels and body weight before the study treatment was started. For all animals, the high-fat diet was started at the same age.
We treated DIO mice with the inhibitor or corresponding vehicle (5% DMSO/10% Cremophor® EL/85% water) twice a day at the same time by oral gavage according to their grouping (5, 15, and 50 mg/kg dose groups, and vehicle control groups). During the study, we measured body weight and blood glucose. We measured glucose concentrations in tail tip blood samples with the “Accu-Chek® Performa” glucometer (Roche, Basel, Switzerland, range <33.3 mmol/L). We determined random fed blood glucose and fasting blood glucose after overnight fasting.
We determined serum beta-hydroxybutyrate with a Beta-Hydroxybutyrate Assay kit, (Sigma-Aldrich, Cat.No. MAK041, St. Louis, MO, USA) following the manufacturer’s instructions. The sample was undiluted, and the volume was 5 µL.
We performed Western blots as described previously. Deviating from that protocol samples were heated for 5 min at 95 °C and blotting time was 1 h at 20 volts. For target protein detection, AMPK alpha (D63G4) Rabbit mAb (Cell Signaling Technology, Inc., Danvers, MA, USA; Cat. No. #5832/3; working dilution 1:1000) and Phospho-AMPK alpha (Thr172) (40H9) Rabbit mAb (Cell Signaling Technology, Inc.; Cat. No. #2535/16; working dilution 1:1000) were used; gel loading was controlled by anti-beta-actin (Sigma-Aldrich, Cat. No. A2228). We detected signals with the SuperSignal West Dura Extended Duration Substrate (Thermo Fisher Scientific; Cat. No. 34076, Waltham, MA, USA).

[6] = molecular target: T2, mouse Nact (Mus musculus, UniProt Q67BT3); test: [14C] citrate uptake in HEK293 cells recombinantly expressing mouse Nact; format: cell-based; details: HEK293 overexpressing mouse Nact, citrate substrate; read-out: IC50 [14C] citrate uptake, HEK293 (mouse Nact)
T2 construct: expressed in transfected cells; host or cells: HEK293 (DSMZ), stably transfected, G418 selection
T2 sequence (Q67BT3 1-572): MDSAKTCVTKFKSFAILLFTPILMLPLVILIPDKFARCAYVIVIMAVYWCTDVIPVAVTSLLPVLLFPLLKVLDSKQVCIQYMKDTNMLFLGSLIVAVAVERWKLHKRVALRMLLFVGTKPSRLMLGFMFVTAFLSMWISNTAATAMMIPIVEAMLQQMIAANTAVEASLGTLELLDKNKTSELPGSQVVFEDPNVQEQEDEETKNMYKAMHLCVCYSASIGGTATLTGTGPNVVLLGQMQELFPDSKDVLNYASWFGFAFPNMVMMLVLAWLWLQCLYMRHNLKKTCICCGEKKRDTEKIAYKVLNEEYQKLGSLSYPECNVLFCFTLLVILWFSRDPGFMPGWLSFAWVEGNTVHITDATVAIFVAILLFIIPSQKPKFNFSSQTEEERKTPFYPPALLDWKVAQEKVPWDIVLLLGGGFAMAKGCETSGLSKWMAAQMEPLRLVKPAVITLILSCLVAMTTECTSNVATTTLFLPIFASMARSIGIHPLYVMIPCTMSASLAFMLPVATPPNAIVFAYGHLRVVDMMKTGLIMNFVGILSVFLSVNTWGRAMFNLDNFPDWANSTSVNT
Excerpt: as §1, §2

O=C(Nc1cc(Cl)cc(C(F)(F)F)c1)OCCC(F)(F)F [ETG-5773]
Plasma β-hydroxybutyrate (β-HBA) concentrations vs pair-fed and vehicle [1]: significantly increased
Concentration in brain relative to liver (lower) [2]: 30 fold
In vitro activity relative to PF-06649298 ([3]; ETG-5773 more active than PF-06649298): more than 100 fold
IC50 ([3]; HepG2, human NaCT, citrate substrate): 160 nM
Tolerability of the selected dose ([4]; 15 mg/kg twice daily): well tolerated
Food intake ([4]; preliminary short-term tolerability studies, DIO mouse model): reduced food intake
Liver fat after seven-days treatment [5]: not sufficient to significantly reduce liver fat
Ratio of phosphorylated AMPK to total AMPK in liver vs both control groups ([5]; Western blot, p < 0.01): AMPK activation
HOMA-IR change vs vehicle ([5]; numerically reduced, p = 0.24): −95%
Fasting serum insulin change vs vehicle ([5]; numerically reduced, p = 0.4): −91%
Body weight change vs vehicle control ([5]; p < 0.0001): −15%
Fasting blood glucose change vs vehicle ([5]; p < 0.0001): −45%
Reduction in fasting blood glucose vs pair-fed vehicle control ([5]; p < 0.0001): 36%
Reduction in HOMA-IR vs pair-fed vehicle control ([5]; p < 0.05): > 95%
Reduction in fasting serum insulin vs pair-fed vehicle control ([5]; p < 0.05): > 95%
IC50 [6]: 180 nM
